Values of other authors as cited in PMC10034008, “Pretargeted imaging beyond the blood–brain barrier” (RSC Medicinal Chemistry, 2022).

Parameters: method as in ESI 3, 4
Details: irreversible tracers in their respective target regions; ref ESI 3, 4

[11CH3]N1CN(c2ccccc2)C2(CCN(CCCC(=O)c3ccc(F)cc3)CC2)C1=O [N-[11C]methylspiperone]
trapping rate k3: 0.06 min⁻¹

CCC(=O)OC1CCN([11CH3])CC1 [[11C]PMP]
trapping rate k3: 0.03 to 0.35 min⁻¹
